Measurements published in US8575186B2, “Epiminocycloalkyl[b] indole derivatives as serotonin sub-type 6 (5-HT6) modulators and uses thereof” (Albany Molecular Research, Inc., priority 2009, dated 2013).
Structures can show the parent of a compound that is named as a salt.

Molecular target: human 5-HT6 receptor (Homo sapiens (Human), UniProt P50406)
Experiment: radioligand binding assay (SPA format), [N-methyl-3H]-LSD
Conditions: human 5HT6 Ki, human 5-HT6 receptor membranes, 10 nM [3H]-LSD

Sequence of human 5-HT6 receptor (P50406 whole entry): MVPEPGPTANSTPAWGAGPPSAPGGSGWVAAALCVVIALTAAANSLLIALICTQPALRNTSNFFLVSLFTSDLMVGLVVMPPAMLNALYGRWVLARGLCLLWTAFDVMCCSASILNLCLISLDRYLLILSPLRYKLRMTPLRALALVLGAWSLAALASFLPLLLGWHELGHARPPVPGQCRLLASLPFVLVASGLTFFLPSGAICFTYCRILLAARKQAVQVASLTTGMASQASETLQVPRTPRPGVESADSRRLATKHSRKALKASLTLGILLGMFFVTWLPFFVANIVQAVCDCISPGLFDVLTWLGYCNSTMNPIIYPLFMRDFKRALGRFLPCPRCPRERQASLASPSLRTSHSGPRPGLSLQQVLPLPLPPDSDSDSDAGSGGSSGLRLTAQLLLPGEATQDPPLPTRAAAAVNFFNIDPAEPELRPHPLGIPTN

Row | SMILES | Ki
1 | COc1cc(S(=O)(=O)c2cccc(C(F)(F)F)c2)cc2c3c(n(C)c12)CC1CCC3N1 (stereo not drawn) [Example 216] | 0.8 nM
2 | COc1cc(S(=O)(=O)c2cccc(C(F)(F)F)c2)cc2c3c(n(C)c12)CC1CCC3N1 (stereo not drawn) [Example 215] | 1.8 nM
3 | Cn1c2c(c3cc(S(=O)(=O)n4ccc5ccc(C#N)cc54)ccc31)C1CCC(C2)N1 (stereo not drawn) [Example 199] | 1.8 nM

Same assay, conditions: read-out: human 5HT6 Ki; human 5-HT6 receptor membranes, 10 nM [3H]-LSD

Row | SMILES | Ki
4 | Cc1cn(S(=O)(=O)c2ccc3c(c2)c2c(n3C)CC3CCC2N3)c2ccccc12 (stereo not drawn) [Example 202] | 0.72 nM
5 | Cn1cc(S(=O)(=O)c2ccc3c(c2)c2c(n3C)CC3CCC2N3)c2ccccc21 (stereo not drawn) [Example 165] | 0.81 nM
6 | Cn1c2c(c3cc(S(=O)(=O)c4csc5ccccc45)cc(F)c31)C1CCC(C2)N1 (stereo not drawn) [Example 139] | 0.47 nM
7 | Cn1c2c(c3cc(S(=O)(=O)c4cccc(-c5cc[nH]n5)c4)ccc31)C1CCC(C2)N1 (stereo not drawn) [Example 125] | 244 nM
8 | Cn1c2c(c3cc(S(=O)(=O)c4ccccc4O)ccc31)C1CCC(C2)N1 (stereo not drawn) [Example 105] | 100 nM
9 | Cn1c2c(c3cc(S(=O)(=O)c4ccc5sccc5c4)ccc31)C1CCC(C2)N1 (stereo not drawn) [Example 104] | 5 nM
10 | COc1cc(S(=O)(=O)n2ncc3ccccc32)cc2c3c(n(C)c12)CC1CCC3N1 (stereo not drawn) [Example 148] | 1.3 nM
11 | Cn1c2c(c3cc(S(=O)(=O)c4ccccc4)cc(OCc4cccnc4)c31)C1CCC(C2)N1 (stereo not drawn) [Example 155] | 129 nM
12 | Cn1c2c(c3cc(S(=O)(=O)c4cccc5ccncc45)ccc31)C1CCC(C2)N1 (stereo not drawn) [Example 131] | 13 nM
13 | COc1cc(S(=O)(=O)c2ccc3[nH]ccc3c2)cc2c3c(n(C)c12)CC1CCC3N1 (stereo not drawn) [Example 145] | 0.31 nM
14 | CN(C)Cc1ccc(S(=O)(=O)c2ccc3c(c2)c2c(n3C)CC3CCC2N3)cc1 (stereo not drawn) [Example 34, 2-[4-(N,N-Dimethylaminomethyl)phenyl]sulfonyl-5-methyl-5,6,7,8,9,10-hexahydro-7,10-epiminocyclohepta[b]indole dihydrochloride] | 4.8 nM
15 | Cc1cn(S(=O)(=O)c2ccc3c(c2)c2c(n3C)CC3CCC2N3)c2ccccc12 (stereo not drawn) [Example 201] | 1.4 nM
16 | COCCN1C2CCC1c1c(n(C)c3ccc(S(=O)(=O)c4ccc5[nH]ccc5c4)cc13)C2 (stereo not drawn) [Example 136] | 1.4 nM
17 | Cn1cc(S(=O)(=O)c2ccc3c(c2)c2c(n3C)CC3CCC2N3)c2ccccc21 (stereo not drawn) [Example 166] | 0.41 nM
18 | COc1cc(S(=O)(=O)c2cccc(F)c2)cc2c3c(n(C)c12)CC1CCC3N1 (stereo not drawn) [Example 222] | 0.56 nM
19 | Cn1c2c(c3cc(S(=O)(=O)c4ccc5sccc5c4)ccc31)C1CCC(C2)N1 (stereo not drawn) [Example 168] | 3.3 nM
20 | Cn1c2c(c3cc(S(=O)(=O)n4ccc5cc(Cl)ccc54)ccc31)C1CCC(C2)N1 (stereo not drawn) [Example 195] | 4.6 nM
21 | Cn1c2c(c3cc(S(=O)(=O)c4cn(-c5ccccc5)c5ccccc45)ccc31)C1CCC(C2)N1 (stereo not drawn) [Example 103] | 9.3 nM
22 | COc1cc(S(=O)(=O)c2cncc3ccccc23)cc2c3c(n(C)c12)CC1CCC3N1 (stereo not drawn) [Example 233] | 3.7 nM
23 | Cn1c2c(c3cc(S(=O)(=O)c4cccc(Cl)c4)ccc31)C1CCC(C2)N1 (stereo not drawn) [Example 157] | 2.7 nM
24 | COc1cc(S(=O)(=O)n2ccc3ccc(C#N)cc32)cc2c3c(n(C)c12)CC1CCC3N1 (stereo not drawn) [Example 243] | 0.58 nM
25 | Cn1c2c(c3cc(S(=O)(=O)c4cccc5cccnc45)ccc31)C1CCC(C2)N1 (stereo not drawn) [Example 169] | 27 nM
26 | COc1cc(S(=O)(=O)c2cccc(OCc3ccccc3)c2)cc2c3c(n(C)c12)CC1CCC3N1 (stereo not drawn) [Example 147] | 1.4 nM
27 | CCOc1cc(S(=O)(=O)c2ccccc2)cc2c3c(n(C)c12)CC1CCC3N1 (stereo not drawn) [Example 234] | 4.9 nM

Row | SMILES | Ki
28 | Cn1c2c(c3cc(S(=O)(=O)c4cccc5cccnc45)ccc31)C1CCC(C2)N1 (stereo not drawn) [Example 113] | 23 nM
29 | Cc1cc2ccccc2n1S(=O)(=O)c1ccc2c(c1)c1c(n2C)CC2CCC1N2 (stereo not drawn) [Example 126] | 7.2 nM
30 | Cn1c2c(c3cc(S(=O)(=O)c4cn(Cc5ccccc5)c5ccccc45)ccc31)C1CCC(C2)N1 (stereo not drawn) [Example 102] | 0.71 nM
31 | Cn1c2c(c3cc(S(=O)(=O)c4ccccc4)cc(N4CCCC4)c31)C1CCC(C2)N1 (stereo not drawn) [Example 156] | 52 nM
32 | Cn1c2c(c3cc(S(=O)(=O)c4ccc(C#N)cc4)ccc31)C1CCC(C2)N1 (stereo not drawn) [Example 178] | 454 nM
33 | Cn1c2c(c3cc(S(=O)(=O)c4ccccc4F)ccc31)C1CCC(C2)N1 (stereo not drawn) [Example 112] | 4.6 nM
34 | Cn1c2c(c3cc(S(=O)(=O)c4cccc5cnccc45)ccc31)C1CCC(C2)N1 (stereo not drawn) [Example 111] | 22 nM
35 | Cn1c2c(c3cc(S(=O)(=O)c4ccc5[nH]ccc5c4)ccc31)C1CCC(C2)N1CCO (stereo not drawn) [Example 138] | 1.2 nM
36 | Cn1c2c(c3cc(S(=O)(=O)c4cc(F)ccn4)ccc31)C1CCC(C2)N1 (stereo not drawn) [Example 96] | 341 nM
37 | CC(C)n1c2c(c3cc(S(=O)(=O)c4ccccc4)ccc31)C1CCC(C2)N1 (stereo not drawn) [Example 181] | 284 nM
38 | Cn1c2c(c3cc(S(=O)(=O)c4cccc(OCc5ccccc5)c4)ccc31)C1CCC(C2)N1 (stereo not drawn) [Example 121] | 1.9 nM
39 | Cn1c2c(c3cc(S(=O)(=O)c4ccc(C#N)cc4)ccc31)C1CCC(C2)N1 (stereo not drawn) [Example 177] | 747 nM
40 | CN1C2CCC1c1c(n(C)c3ccc(S(=O)(=O)c4ccc5[nH]ccc5c4)cc13)C2 (stereo not drawn) [Example 184] | 0.35 nM
41 | Cn1c2c(c3cc(S(=O)(=O)n4ccc5ccc(C#N)cc54)ccc31)C1CCC(C2)N1 (stereo not drawn) [Example 200] | 0.75 nM
42 | CN1C2CCC1c1c(n(C)c3ccc(S(=O)(=O)c4ccccc4)cc13)C2 (stereo not drawn) [Example 69, 2-Phenylsulfonyl-5-methyl-5,6,7,8,9,10-hexahydro-7,10-N-methyl-epiminocyclohepta[b]indole hydrochloride] | 7.8 nM
43 | Cn1c2c(c3cc(S(=O)(=O)c4ccccc4Cl)ccc31)C1CCC(C2)N1 (stereo not drawn) [Example 115] | 4.8 nM
44 | Cn1c2c(c3cc(S(=O)(=O)c4ccccc4)cc(C#N)c31)C1CCC(C2)N1 (stereo not drawn) [Example 142] | 115 nM
45 | COc1cc(S(=O)(=O)n2ccc3ccc(C#N)cc32)cc2c3c(n(C)c12)CC1CCC3N1 (stereo not drawn) [Example 242] | 2.4 nM
46 | Cn1c2c(c3cc(S(=O)(=O)c4cccc5ncccc45)ccc31)C1CCC(C2)N1 (stereo not drawn) [Example 110] | 148 nM
47 | CCN1C2CCC1c1c(n(C)c3ccc(S(=O)(=O)c4ccc5[nH]ccc5c4)cc13)C2 (stereo not drawn) [Example 186] | 0.77 nM
48 | COc1cc(S(=O)(=O)n2ccc3ccccc32)cc2c3c(n(C)c12)CC1CCC3N1 (stereo not drawn) [Example 241] | 0.35 nM
49 | COc1cc(S(=O)(=O)c2cccc(-n3cccn3)c2)cc2c3c(n(C)c12)CC1CCC3N1 (stereo not drawn) [Example 247] | 1.5 nM
50 | COc1cc(S(=O)(=O)c2cncc3ccccc23)cc2c3c(n(C)c12)CC1CCC3N1 (stereo not drawn) [Example 232] | 9.6 nM
51 | Cn1c2c(c3cc(S(=O)(=O)c4cc(F)c5[nH]ccc5c4)ccc31)C1CCC(C2)N1 (stereo not drawn) [Example 124] | 0.33 nM

Row | SMILES | Ki
52 | CC(C)n1c2c(c3cc(S(=O)(=O)c4ccccc4)ccc31)C1CCC(C2)N1 (stereo not drawn) [Example 182] | 365 nM
53 | Cn1c2c(c3cc(S(=O)(=O)c4ccc5[nH]ccc5c4)ccc31)C1CCC(C2)N1Cc1ccccc1 (stereo not drawn) [Example 137] | 1.2 nM
54 | COc1cc(S(=O)(=O)c2cccc(F)c2)cc2c3c(n(C)c12)CC1CCC3N1 (stereo not drawn) [Example 221] | 3.3 nM
55 | CN1C2CCC1c1c(n(C)c3ccc(S(=O)(=O)c4ccc5[nH]ccc5c4)cc13)C2 (stereo not drawn) [Example 183] | 0.42 nM
56 | Cn1c2c(c3cc(S(=O)(=O)c4cc(Cl)ccn4)ccc31)C1CCC(C2)N1 (stereo not drawn) [Example 97] | 104 nM
57 | COc1cc(S(=O)(=O)n2cc(C#N)c3ccccc32)cc2c3c(n(C)c12)CC1CCC3N1 (stereo not drawn) [Example 149] | 1.2 nM
58 | Cn1c2c(c3cc(S(=O)(=O)c4cccc(C(F)(F)F)c4)cc(O)c31)C1CCC(C2)N1 (stereo not drawn) [Example 209] | 0.53 nM
59 | Cn1c2c(c3cc(S(=O)(=O)c4cccc(OCc5ccncc5)c4)ccc31)C1CCC(C2)N1 (stereo not drawn) [Example 133] | 11 nM
60 | Cn1c2c(c3cc(S(=O)(=O)c4ccc5cc[nH]c5c4)ccc31)C1CCC(C2)N1 (stereo not drawn) [Example 95] | 5.8 nM
61 | CN(C)C(=O)COc1cc(S(=O)(=O)c2ccccc2)cc2c3c(n(C)c12)CC1CCC3N1 (stereo not drawn) [Example 153] | 581 nM
62 | CCN1C2CCC1c1c(n(C)c3ccc(S(=O)(=O)c4ccc5[nH]ccc5c4)cc13)C2 (stereo not drawn) [Example 185] | 1.5 nM
63 | Cn1c2c(c3cc(S(=O)(=O)n4cc(F)c5ccccc54)ccc31)C1CCC(C2)N1 (stereo not drawn) [Example 129] | 2.7 nM
64 | Cn1c2c(c3cc(S(=O)(=O)c4ccccc4)cc(OC(F)(F)F)c31)C1CCC(C2)N1 (stereo not drawn) [Example 150] | 70 nM
65 | COc1cc(S(=O)(=O)c2cn(C)c3ccccc23)cc2c3c(n(C)c12)CC1CCC3N1 (stereo not drawn) [Example 223] | 2.4 nM
66 | Cn1c2c(c3cc(S(=O)(=O)c4ccc5sccc5c4)ccc31)C1CCC(C2)N1 (stereo not drawn) [Example 167] | 7.5 nM
67 | CC(C)n1ccc2cc(S(=O)(=O)c3ccc4c(c3)c3c(n4C)CC4CCC3N4)ccc21 (stereo not drawn) [Example 117] | 4.4 nM
68 | COc1cc(S(=O)(=O)c2cn(C)c3ccccc23)cc2c3c(n(C)c12)CC1CCC3N1 (stereo not drawn) [Example 224] | 0.99 nM
69 | Cn1c2c(c3cc(S(=O)(=O)n4ccc5ncccc54)ccc31)C1CCC(C2)N1 (stereo not drawn) [Example 107] | 78 nM
70 | COc1cc(S(=O)(=O)c2cccc(Cl)c2)cc2c3c(n(C)c12)CC1CCC3N1C (stereo not drawn) [Example 225] | 0.53 nM
71 | Cn1c2c(c3cc(S(=O)(=O)c4ccccc4F)cc(O)c31)C1CCC(C2)N1 (stereo not drawn) [Example 211] | 1.6 nM
72 | COc1cc(S(=O)(=O)c2cccc(OC(F)F)c2)cc2c3c(n(C)c12)CC1CCC3N1 (stereo not drawn) [Example 214] | 3 nM
73 | Cn1c2c(c3cc(S(=O)(=O)c4cccc(-n5cccn5)c4)ccc31)C1CCC(C2)N1 (stereo not drawn) [Example 244] | 14 nM
74 | Cn1c2c(c3cc(S(=O)(=O)c4cccc5cc[nH]c45)ccc31)C1CCC(C2)N1 (stereo not drawn) [Example 99] | 4.5 nM

Same assay, conditions: read-out: human 5HT6 Ki; human 5-HT6 receptor membranes, 10 nM [3H]-LSD; hydrochloride

Row | SMILES | Ki
75 | Cn1c2c(c3cc(S(=O)(=O)c4cccc(Cl)c4)ccc31)C1CCC(C2)N1 (stereo not drawn) [Example 36, 2-(3-Chlorophenyl)sulfonyl-5-methyl-5,6,7,8,9,10-hexahydro-7,10-epiminocyclohepta[b]indole hydrochloride] | 1.8 nM
